The OPERA property sets (Mansouri et al. 2018)

Work on N#CC(C#N)=NNc1ccc(Cl)cc1 yielded a logP of 3.39. Compound N#CC(C#N)=NNc1ccc([N+](=O)[O-])cc1 has a logP of 2.37. N#CC(C#N)=NNc1ccc(OC(F)(F)F)cc1 gave a logP of 3.68. With CC(=O)Nc1ccc(NN=C(C#N)C#N)cc1 the logP was 1.83. N#CC(C#N)=NNc1ccc(CCCl)cc1 gave a logP of 3.58. For Cc1ccc(NN=C(C#N)C#N)cc1, the logP was 3.2. For N#CC(C#N)=NNc1ccccc1[N+](=O)[O-], the logP was 2.9. Work on N#CC(C#N)=NNc1cccc(O)c1 yielded a logP of 2.28. Compound N#CC(C#N)=NNc1cccc(Cl)c1 has a logP of 3.38. Work on CC(=O)c1ccc(NN=C(C#N)C#N)cc1 yielded a logP of 2.1.
